Tests used:
Experiment in all cases: relative viability (nuclei count vs DMSO), 5 days (fraction); higher = more cells survive
EPLC-272H = tested on: EPLC-272H
How it was run: (§1)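 Lung cancer cell lines were seeded in 1536-well plates and dosed by pin tool the next day, with either a single drug or a fixed anchor-drug dose combined with five library-drug doses (not always all listed) spaced in √10 steps. Five days later, one step fixed the cells and stained their nuclei (final 0.05% Triton X-100, 1% formaldehyde, 1 ug/ml Hoechst), and nuclei were counted on 4× images. Relative viability is the nuclei count in treated wells divided by the count in vehicle wells, and each value is the median of duplicate plates.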

HCC-78 = tested on: HCC-78
How it was run: as §1

CAL-12T = tested on: CAL-12T
How it was run: as §1

HCC-15 = tested on: HCC-15
How it was run: as §1

NCI-H441 = tested on: NCI-H441
How it was run: as §1

ABC-1 = tested on: ABC-1
How it was run: as §1

NCI-H3122 = tested on: NCI-H3122
How it was run: as §1

LXF-289 = tested on: LXF-289
How it was run: as §1

UMC-11 = tested on: UMC-11
How it was run: as §1

NCI-H1975 = tested on: NCI-H1975
How it was run: as §1

COR-L 105 = tested on: COR-L 105
How it was run: as §1

NCI-H1915 = tested on: NCI-H1915
How it was run: as §1

NCI-H2126 = tested on: NCI-H2126
How it was run: as §1

ChaGo-K-1 = tested on: ChaGo-K-1
How it was run: as §1

NCI-H322M = tested on: NCI-H322M
How it was run: as §1

NCI-H358 = tested on: NCI-H358
How it was run: as §1

NCI-H2023 = tested on: NCI-H2023
How it was run: as §1

HOP-62 = tested on: HOP-62
How it was run: as §1

NCI-H2085 = tested on: NCI-H2085
How it was run: as §1

NCI-H1755 = tested on: NCI-H1755
How it was run: as §1

EMC-BAC-2 = tested on: EMC-BAC-2
How it was run: as §1

NCI-H1666 = tested on: NCI-H1666
How it was run: as §1

Work on `O=c1cc(N2CCOCC2)oc2c(-c3cccc4c3sc3ccccc34)cccc12` + C[C@@H](Oc1cc(-c2cnn(C3CCNCC3)c2)cnc1N)c1c(Cl)ccc(F)c1Cl [Crizotinib] (partner 1 µM) yielded a relative viability (EPLC-272H; first compound 0.01 µM) of 0.909, a relative viability (EPLC-272H; first compound 0.03162 µM) of 1.07 and a relative viability (EPLC-272H; first compound 0.3162 µM) of 0.937. For the same molecule, the relative viability (EPLC-272H; first compound 1 µM) was 0.896, the relative viability (HCC-78; first compound 0.01 µM) was 0.342 and the relative viability (HCC-78; first compound 0.03162 µM) was 0.33. It also gave a relative viability (HCC-78; first compound 0.1 µM) of 0.331, a relative viability (HCC-78; first compound 0.3162 µM) of 0.326 and a relative viability (HCC-78; first compound 1 µM) of 0.353. For the same molecule, the relative viability (CAL-12T; first compound 0.01 µM) was 0.58, the relative viability (CAL-12T; first compound 0.03162 µM) was 0.657 and the relative viability (CAL-12T; first compound 0.1 µM) was 0.767. It also gave a relative viability (CAL-12T; first compound 0.3162 µM) of 0.591, a relative viability (CAL-12T; first compound 1 µM) of 0.775 and a relative viability (HCC-15; first compound 0.01 µM) of 0.807. It also gave a relative viability (HCC-15; first compound 0.03162 µM) of 0.846, a relative viability (HCC-15; first compound 0.1 µM) of 0.879 and a relative viability (HCC-15; first compound 0.3162 µM) of 0.773. It also gave a relative viability (HCC-15; first compound 1 µM) of 0.764, a relative viability (NCI-H441; first compound 0.01 µM) of 0.841 and a relative viability (NCI-H441; first compound 0.03162 µM) of 0.785. The relative viability (NCI-H441; first compound 0.1 µM) was 1.09, the relative viability (NCI-H441; first compound 0.3162 µM) was 0.679 and the relative viability (NCI-H441; first compound 1 µM) was 0.756. The relative viability (ABC-1; first compound 0.01 µM) was 1.26, the relative viability (ABC-1; first compound 0.03162 µM) was 0.654 and the relative viability (ABC-1; first compound 0.1 µM) was 0.983. The relative viability (ABC-1; first compound 0.3162 µM) was 1.06, the relative viability (ABC-1; first compound 1 µM) was 1.11 and the relative viability (NCI-H3122; first compound 0.01 µM) was 0.269. It also gave a relative viability (NCI-H3122; first compound 0.03162 µM) of 0.273, a relative viability (NCI-H3122; first compound 0.1 µM) of 0.274 and a relative viability (NCI-H3122; first compound 0.3162 µM) of 0.297. It also gave a relative viability (NCI-H3122; first compound 1 µM) of 0.284, a relative viability (LXF-289; first compound 0.01 µM) of 0.814 and a relative viability (LXF-289; first compound 0.03162 µM) of 0.806. For the same molecule, the relative viability (LXF-289; first compound 0.1 µM) was 0.794, the relative viability (LXF-289; first compound 0.3162 µM) was 0.789 and the relative viability (LXF-289; first compound 1 µM) was 0.755. For the same molecule, the relative viability (UMC-11; first compound 0.01 µM) was 0.69, the relative viability (UMC-11; first compound 0.03162 µM) was 0.648 and the relative viability (UMC-11; first compound 0.1 µM) was 0.592. The relative viability (UMC-11; first compound 0.3162 µM) was 0.631, the relative viability (UMC-11; first compound 1 µM) was 0.565 and the relative viability (NCI-H1975; first compound 0.01 µM) was 0.862. It also gave a relative viability (NCI-H1975; first compound 0.03162 µM) of 0.998, a relative viability (NCI-H1975; first compound 0.1 µM) of 1.02 and a relative viability (NCI-H1975; first compound 0.3162 µM) of 0.808. The relative viability (NCI-H1975; first compound 1 µM) was 0.984, the relative viability (COR-L 105; first compound 0.01 µM) was 0.655 and the relative viability (COR-L 105; first compound 0.03162 µM) was 0.649. It also gave a relative viability (COR-L 105; first compound 0.1 µM) of 0.856, a relative viability (COR-L 105; first compound 0.3162 µM) of 0.724 and a relative viability (COR-L 105; first compound 1 µM) of 0.589. It also gave a relative viability (NCI-H1915; first compound 0.01 µM) of 0.875, a relative viability (NCI-H1915; first compound 0.03162 µM) of 0.879 and a relative viability (NCI-H1915; first compound 0.1 µM) of 0.939. For the same molecule, the relative viability (NCI-H1915; first compound 0.3162 µM) was 0.876, the relative viability (NCI-H1915; first compound 1 µM) was 0.933 and the relative viability (NCI-H2126; first compound 0.01 µM) was 1.04. The relative viability (NCI-H2126; first compound 0.03162 µM) was 1.01, the relative viability (NCI-H2126; first compound 0.1 µM) was 1.01 and the relative viability (NCI-H2126; first compound 0.3162 µM) was 0.944. For the same molecule, the relative viability (NCI-H2126; first compound 1 µM) was 0.955, the relative viability (ChaGo-K-1; first compound 0.01 µM) was 1.17 and the relative viability (ChaGo-K-1; first compound 0.03162 µM) was 1.16. For the same molecule, the relative viability (ChaGo-K-1; first compound 0.1 µM) was 1.23, the relative viability (ChaGo-K-1; first compound 0.3162 µM) was 1.08 and the relative viability (ChaGo-K-1; first compound 1 µM) was 1.08. The relative viability (NCI-H322M; first compound 0.01 µM) was 0.94, the relative viability (NCI-H322M; first compound 0.03162 µM) was 0.842 and the relative viability (NCI-H322M; first compound 0.3162 µM) was 0.943. The relative viability (NCI-H322M; first compound 1 µM) was 0.84, the relative viability (NCI-H358; first compound 0.01 µM) was 0.498 and the relative viability (NCI-H358; first compound 0.03162 µM) was 0.546. For the same molecule, the relative viability (NCI-H358; first compound 0.1 µM) was 0.794, the relative viability (NCI-H358; first compound 0.3162 µM) was 0.658 and the relative viability (NCI-H358; first compound 1 µM) was 0.535. The relative viability (NCI-H2023; first compound 0.01 µM) was 0.574, the relative viability (NCI-H2023; first compound 0.03162 µM) was 0.589 and the relative viability (NCI-H2023; first compound 0.1 µM) was 0.663. The relative viability (NCI-H2023; first compound 0.3162 µM) was 0.616, the relative viability (NCI-H2023; first compound 1 µM) was 0.586 and the relative viability (HOP-62; first compound 0.01 µM) was 1.06. For the same molecule, the relative viability (HOP-62; first compound 0.03162 µM) was 0.931, the relative viability (HOP-62; first compound 0.1 µM) was 0.931 and the relative viability (HOP-62; first compound 0.3162 µM) was 0.945. It also gave a relative viability (HOP-62; first compound 1 µM) of 1.04, a relative viability (NCI-H2085; first compound 0.01 µM) of 0.941 and a relative viability (NCI-H2085; first compound 0.03162 µM) of 0.89. It also gave a relative viability (NCI-H2085; first compound 0.1 µM) of 0.879, a relative viability (NCI-H2085; first compound 0.3162 µM) of 0.841 and a relative viability (NCI-H2085; first compound 1 µM) of 0.889. The relative viability (NCI-H1755; first compound 0.01 µM) was 0.875, the relative viability (NCI-H1755; first compound 0.03162 µM) was 0.812 and the relative viability (NCI-H1755; first compound 0.1 µM) was 0.838. The relative viability (NCI-H1755; first compound 0.3162 µM) was 0.807, the relative viability (NCI-H1755; first compound 1 µM) was 0.767 and the relative viability (EMC-BAC-2; first compound 0.01 µM) was 0.787. The relative viability (EMC-BAC-2; first compound 0.03162 µM) was 0.788, the relative viability (EMC-BAC-2; first compound 0.1 µM) was 0.847 and the relative viability (EMC-BAC-2; first compound 0.3162 µM) was 0.77. For the same molecule, the relative viability (EMC-BAC-2; first compound 1 µM) was 0.735, the relative viability (NCI-H1666; first compound 0.01 µM) was 0.971 and the relative viability (NCI-H1666; first compound 0.03162 µM) was 1.05. The relative viability (NCI-H1666; first compound 0.1 µM) was 0.905, the relative viability (NCI-H1666; first compound 0.3162 µM) was 0.941 and the relative viability (NCI-H1666; first compound 1 µM) was 0.812.

Source: the supplement of paper PMC10307832
